Measurements reported in patent US4157392A, “Pharmacologically active substituted 1,2,4-triazines” (Diamond Shamrock Corporation, priority 1978, dated 1979).
Counter-ions that a name gives are not always drawn.

Tested on: carrageenin-induced edema in the hind paw of a rat
Test: Carrageenin Assay (carrageenin-induced edema, hind paw)
Format: in vivo, rat (male, Long Evans strain)
Conditions: Rattus norvegicus, 1 h before carrageenin, edema at 3 h, compared to phenylbutazone control values, read-out: % Reduction of Edema; for inhibition in vivo at 200 mg/kg: 200 mg/kg oral; for inhibition in vivo at 150 mg/kg: 150 mg/kg oral
Description: The procedure employed is a modification of the method of Winter et al, Proc. Soc. Exptl. Biol. Med. 111:544 (1962). The device used for measurement of the paw volume is an adaptation of the water displacement procedure described by Adamkiewicz et al, Can. J. Biochem. Physiol. 33:332 (1955). Test compounds were administered orally, one hour prior to the intraplantar injection of 0.05 ml. of sterile 1.0 percent solution of carrageenin into the left hind paw of male rats (Long Evans strain) weighing between about 130-200 grams. At peak swelling time (3 hours) the volume of edema was calculated by differential paw volumes.
Table I sets forth the results obtained (indicated as percent reduction of edema compared to phenylbutazone control values) at the indicated dosages for each of the identified compounds.

Row | SMILES | inhibition in vivo at 200 mg/kg [%] | other results
1 | COc1nnc(-c2ccccn2)c(-c2ccccn2)n1 [Example 27, 3-methoxy-5,6-di(2'-pyridyl)-1,2,4-triazine] | 46 | 
2 | COc1ccc(-c2cnnc(SC)n2)cc1OC [Example 33, 3-methylthio-5-(3',4'-dimethoxyphenyl)-1,2,4-triazine] | 32 | 
3 | COc1nncc(C23CC4CC(CC(C4)C2)C3)n1 [Example 36, 3-methoxy-5-(1'-adamantyl)-1,2,4-triazine] |  | inhibition in vivo at 150 mg/kg: 30%
4 | COc1nncc(C2CC2)n1 [Example 41, 3-methoxy-5-cyclopropyl-1,2,4-triazine] | 57 | 
5 | COc1nncc(-c2ccc(Br)cc2)n1 [Example 45, 3-methoxy-5-(4'-bromophenyl)-1,2,4-triazine] | 33 | 
6 | COc1ccc(-c2cnnc(OC)n2)cc1 [Example 46, 3-methoxy-5-(4'-methoxyphenyl)-1,2,4-triazine] | 17 | 
7 | C=CCOc1nncc(-c2ccccc2)n1 [Example 47, 3-allyloxy-5-phenyl-1,2,4-triazine] | 67 | 
8 | Clc1nnc(-c2ccccc2)c(-c2ccccc2)n1 [Example 51, 3-chloro-5,6-diphenyl-1,2,4-triazine] | 4 | 
9 | Cc1nnc(SCc2ccccc2)nc1C [Example 56, 3-benzylthio-5,6-dimethyl-1,2,4-triazine] | 52 | 
10 | CSc1nncc(-c2ccc([N+](=O)[O-])cc2)n1 [Example 57, 3-methylthio-5-(4'-nitrophenyl)-1,2,4-triazine] | 16 | 
11 | COc1nncc(-c2ccc(F)cc2F)n1 [Example 58, 3-methoxy-5-(2',4'-difluorophenyl)-1,2,4-triazine] |  | inhibition in vivo at 150 mg/kg: 36%
12 | CSc1nncc(-c2ccccc2)n1 [Example 59, 3-methylthio-5-phenyl-1,2,4-triazine (hydrogen iodide salt)] |  | inhibition in vivo at 150 mg/kg: 14%
13 | Cc1ccc(Oc2nnc(-c3ccccc3)c(-c3ccccc3)n2)cc1 [Example 60, 3-(4'-methylphenoxy)-5,6-diphenyl-1,2,4-triazine] | 18 | 
14 | CCOc1nnc(-c2ccccc2)c(-c2ccccc2)n1 [Example 61, 3-ethoxy-5,6-diphenyl-1,2,4-triazine] | 12 | 
15 | CCc1ccc(-c2cnnc(SC)n2)cc1 [Example 62, 3-methylthio-5-(4'-ethylphenyl)-1,2,4-triazine] | 33 | 
16 | COc1ccc(Oc2nncc(-c3ccccc3)n2)cc1 [Example 63, 3-(4'-methoxyphenoxy)-5-phenyl-1,2,4-triazine] | 15 | 
17 | CCCCCOc1nncc(-c2ccccc2)n1 [Example 64, 3-n-pentoxy-5-phenyl-1,2,4-triazine] | 29 | 
18 | NCC(=O)NNc1nncc(-c2ccccc2)n1 [Example 113, N2-(5-Phenyl-1,2,4-Triazin-3-yl) Glycine Hydrazide (Dihydrobromide Hydrate)] |  | inhibition in vivo at 50 mg/kg (50 mg/kg oral): 32%
